Experimental data from BigSolDB 2.1.

COc1cnc(Cl)nc1Cl
Conditions	solubility (mole fraction)
in acetone, 297.35 K	0.348
in acetone, 299.36 K	0.368
in acetone, 301.17 K	0.386
in acetone, 303.13 K	0.403
in acetone, 304.54 K	0.42
in acetone, 306.18 K	0.436
in acetone, 307.53 K	0.45
in acetone, 308.97 K	0.466
in acetone, 310.25 K	0.481
in acetone, 311.37 K	0.492
in ethanol, 299.44 K	0.0474
in ethanol, 301.27 K	0.0527
in ethanol, 303.17 K	0.0584
in ethanol, 305.17 K	0.0655
in ethanol, 307.06 K	0.0745
in ethanol, 309.05 K	0.0855
in ethanol, 310.73 K	0.0972
in ethanol, 312.58 K	0.11
in ethanol, 314 K	0.125
in ethanol, 315.47 K	0.141
in ethanol, 316.61 K	0.158
in ethyl acetate, 295.6 K	0.288
in ethyl acetate, 296.53 K	0.295
in ethyl acetate, 298.25 K	0.311
in ethyl acetate, 300.66 K	0.33
in ethyl acetate, 302.28 K	0.347
in ethyl acetate, 304.15 K	0.364
in ethyl acetate, 305.62 K	0.382
in ethyl acetate, 307.47 K	0.401
in ethyl acetate, 309.19 K	0.422
in ethyl acetate, 311.16 K	0.444
in ethyl acetate, 313.07 K	0.468
in ethyl acetate, 314.57 K	0.49
in ethyl acetate, 316.39 K	0.513
in methanol, 302.37 K	0.0598
in methanol, 303.78 K	0.0659
in methanol, 305.44 K	0.0734
in methanol, 306.57 K	0.0803
in methanol, 308.12 K	0.0893
in methanol, 309.67 K	0.102
in methanol, 311.15 K	0.114
in methanol, 312.43 K	0.13
in methanol, 313.55 K	0.146
in methanol, 314.81 K	0.163
in methanol, 315.8 K	0.181
in methanol, 316.95 K	0.202
in n-heptane, 298.1 K	0.0094
in n-heptane, 299.83 K	0.0104
in n-heptane, 302.1 K	0.0116
in n-heptane, 303.81 K	0.0129
in n-heptane, 305.72 K	0.0141
in n-heptane, 307.55 K	0.0157
in n-heptane, 309.57 K	0.0174
in n-heptane, 310.97 K	0.0192
in n-heptane, 312.89 K	0.0214
in n-heptane, 315.04 K	0.0239
in n-heptane, 317.15 K	0.0268
in n-heptane, 318.83 K	0.0296
in n-heptane, 320.08 K	0.0324
in tetrachloromethane, 298.6 K	0.123
in tetrachloromethane, 299.42 K	0.13
in tetrachloromethane, 300.63 K	0.143
in tetrachloromethane, 301.97 K	0.159
in tetrachloromethane, 303.35 K	0.178
in tetrachloromethane, 304.82 K	0.196
in tetrachloromethane, 305.8 K	0.214
in tetrachloromethane, 306.87 K	0.237
in tetrachloromethane, 308.2 K	0.261
in tetrachloromethane, 309.57 K	0.288
in tetrachloromethane, 310.9 K	0.315
in tetrachloromethane, 312.15 K	0.343
